Experiments:
BRG-1 = biological target: T1, BRG-1 (Homo sapiens, UniProt P51532); experiment: ATPase catalytic activity assay (ADP-Glo), BRG-1; format: biochemical; conditions: Table 10, read-out: BRG1 IC50
T1 construct: made in house; host or cells: High Five insect cells
In short: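 Biochemical ADP-Glo assay, BRG-1. Post-reaction: ATP depletion reagent, 40 min RT; ADP→ATP conversion/detection reagent, 60 min RT; luminescence read on plate luminometer.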

BRM = biological target: T2, BRM (Homo sapiens, UniProt P51531); experiment: ATPase catalytic activity assay (ADP-Glo), BRM; format: biochemical; conditions: Table 10; for Ratio (BRG1 IC50 (μM) divided by BRM IC50 (μM)): ATPase assay, selectivity BRG1/BRM; for IC50: ATPase catalytic activity assay (ADP-Glo)
T2 construct: made in house; host or cells: High Five insect cells
T2 sequence (P51531 whole entry): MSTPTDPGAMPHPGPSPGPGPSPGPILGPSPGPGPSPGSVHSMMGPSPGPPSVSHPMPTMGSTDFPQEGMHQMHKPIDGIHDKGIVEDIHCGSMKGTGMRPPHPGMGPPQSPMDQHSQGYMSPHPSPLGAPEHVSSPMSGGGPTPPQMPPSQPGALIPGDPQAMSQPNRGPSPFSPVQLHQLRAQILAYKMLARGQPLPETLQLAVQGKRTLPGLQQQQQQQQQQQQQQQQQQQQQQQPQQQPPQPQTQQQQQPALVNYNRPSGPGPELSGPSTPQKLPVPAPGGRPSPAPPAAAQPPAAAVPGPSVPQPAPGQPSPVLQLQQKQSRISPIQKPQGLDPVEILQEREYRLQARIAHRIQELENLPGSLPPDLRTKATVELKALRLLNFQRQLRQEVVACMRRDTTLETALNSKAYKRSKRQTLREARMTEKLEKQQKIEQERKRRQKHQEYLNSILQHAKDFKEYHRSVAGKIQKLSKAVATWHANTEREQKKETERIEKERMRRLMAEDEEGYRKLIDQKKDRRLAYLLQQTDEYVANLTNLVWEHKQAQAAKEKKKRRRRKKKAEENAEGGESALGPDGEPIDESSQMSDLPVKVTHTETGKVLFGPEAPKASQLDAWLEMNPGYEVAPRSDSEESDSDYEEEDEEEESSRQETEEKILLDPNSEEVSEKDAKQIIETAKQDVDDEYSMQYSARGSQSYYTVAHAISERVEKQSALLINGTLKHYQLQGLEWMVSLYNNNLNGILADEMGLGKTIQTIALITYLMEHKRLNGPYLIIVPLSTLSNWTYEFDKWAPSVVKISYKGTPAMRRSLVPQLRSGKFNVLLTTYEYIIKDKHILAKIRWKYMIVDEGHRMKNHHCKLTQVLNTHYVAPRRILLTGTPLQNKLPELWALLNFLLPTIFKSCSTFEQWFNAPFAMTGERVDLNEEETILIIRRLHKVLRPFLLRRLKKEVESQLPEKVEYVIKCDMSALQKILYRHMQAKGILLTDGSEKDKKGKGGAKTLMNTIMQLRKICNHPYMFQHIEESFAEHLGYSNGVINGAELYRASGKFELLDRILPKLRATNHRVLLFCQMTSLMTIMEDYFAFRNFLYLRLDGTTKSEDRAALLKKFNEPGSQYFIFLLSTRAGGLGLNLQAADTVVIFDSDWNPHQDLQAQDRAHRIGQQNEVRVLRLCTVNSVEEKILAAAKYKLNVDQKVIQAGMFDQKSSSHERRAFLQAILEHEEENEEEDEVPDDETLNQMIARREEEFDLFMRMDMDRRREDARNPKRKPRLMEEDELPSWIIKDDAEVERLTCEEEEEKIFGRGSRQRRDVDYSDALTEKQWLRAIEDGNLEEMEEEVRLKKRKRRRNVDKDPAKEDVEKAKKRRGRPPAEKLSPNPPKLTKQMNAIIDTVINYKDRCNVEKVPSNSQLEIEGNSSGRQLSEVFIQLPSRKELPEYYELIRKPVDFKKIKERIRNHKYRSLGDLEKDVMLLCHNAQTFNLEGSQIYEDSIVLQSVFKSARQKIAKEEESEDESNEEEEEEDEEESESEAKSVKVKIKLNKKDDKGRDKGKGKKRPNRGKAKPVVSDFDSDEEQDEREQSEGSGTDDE
In short: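 Reaction holds 30 nM BRM, 20 nM salmon sperm DNA and 400 μM ATP in 20 mM Tris pH 8, 20 mM MgCl2, 50 mM NaCl, 0.1% Tween-20, 1 mM DTT. Incubated 1 h at room temperature. ADP formed is detected by ADP-Glo luminescence.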

T1 sequence (P51532 whole entry): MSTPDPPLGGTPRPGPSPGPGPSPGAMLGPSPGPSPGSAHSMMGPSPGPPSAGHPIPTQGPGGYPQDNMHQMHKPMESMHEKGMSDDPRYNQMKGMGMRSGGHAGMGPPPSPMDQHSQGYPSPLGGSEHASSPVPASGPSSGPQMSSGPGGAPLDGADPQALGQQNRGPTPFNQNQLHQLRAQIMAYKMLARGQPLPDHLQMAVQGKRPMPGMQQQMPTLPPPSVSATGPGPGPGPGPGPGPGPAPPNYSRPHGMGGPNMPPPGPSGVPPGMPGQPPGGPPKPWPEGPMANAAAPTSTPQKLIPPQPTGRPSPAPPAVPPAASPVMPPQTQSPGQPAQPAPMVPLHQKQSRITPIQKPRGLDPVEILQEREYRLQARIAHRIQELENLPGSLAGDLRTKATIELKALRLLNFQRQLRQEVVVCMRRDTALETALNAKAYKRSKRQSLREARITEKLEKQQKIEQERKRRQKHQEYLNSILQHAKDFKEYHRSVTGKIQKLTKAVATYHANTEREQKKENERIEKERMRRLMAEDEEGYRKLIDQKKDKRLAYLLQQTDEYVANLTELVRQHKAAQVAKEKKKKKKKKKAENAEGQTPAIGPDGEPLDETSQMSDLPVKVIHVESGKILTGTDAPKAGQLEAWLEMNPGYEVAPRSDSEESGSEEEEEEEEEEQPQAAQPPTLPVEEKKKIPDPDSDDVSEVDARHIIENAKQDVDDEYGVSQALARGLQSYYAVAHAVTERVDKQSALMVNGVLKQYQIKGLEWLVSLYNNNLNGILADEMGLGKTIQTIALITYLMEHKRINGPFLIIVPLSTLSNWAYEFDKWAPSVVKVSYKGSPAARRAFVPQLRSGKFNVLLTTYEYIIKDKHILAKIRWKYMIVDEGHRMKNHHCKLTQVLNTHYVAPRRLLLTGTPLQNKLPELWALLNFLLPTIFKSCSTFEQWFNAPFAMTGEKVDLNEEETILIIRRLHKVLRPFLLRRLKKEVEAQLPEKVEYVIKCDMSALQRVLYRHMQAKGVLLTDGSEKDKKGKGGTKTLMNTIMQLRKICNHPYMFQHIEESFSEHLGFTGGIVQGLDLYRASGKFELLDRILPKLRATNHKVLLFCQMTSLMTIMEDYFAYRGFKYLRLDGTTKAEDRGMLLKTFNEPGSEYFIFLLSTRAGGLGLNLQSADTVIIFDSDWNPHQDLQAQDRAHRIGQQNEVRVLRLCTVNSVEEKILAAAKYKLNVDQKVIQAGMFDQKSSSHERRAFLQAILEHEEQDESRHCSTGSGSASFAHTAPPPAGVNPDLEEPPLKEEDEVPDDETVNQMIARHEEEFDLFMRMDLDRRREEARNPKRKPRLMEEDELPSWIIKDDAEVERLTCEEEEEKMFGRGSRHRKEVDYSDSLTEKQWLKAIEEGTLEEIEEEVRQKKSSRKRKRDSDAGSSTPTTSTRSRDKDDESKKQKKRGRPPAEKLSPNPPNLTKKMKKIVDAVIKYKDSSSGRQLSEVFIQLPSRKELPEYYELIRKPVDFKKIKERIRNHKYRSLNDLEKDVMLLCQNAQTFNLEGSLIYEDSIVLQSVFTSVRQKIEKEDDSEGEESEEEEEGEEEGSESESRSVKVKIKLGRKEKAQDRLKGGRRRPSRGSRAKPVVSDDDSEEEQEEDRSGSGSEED

Row | IC50 (BRG-1) | Ratio (BRG1 IC50 (μM) divided by BRM IC50 (μM)) (BRM) | IC50 (BRM) | Structure (SMILES)
1 | 0.128 µM | 23.40 | 0.0061 µM | O=C(NCc1cc2nc(-c3cccc(OC(F)F)n3)ccc2cn1)c1cc(F)c2c(c1)S(=O)(=O)[C@@H](F)COC2 [Compound 205]
2 | 0.199 µM | 23.60 | 0.0089 µM | O=C(NCc1cc2nc(N3CCCc4ccc(C(F)F)nc43)ccc2cn1)c1cc(Cl)c2c(c1)S(=O)(=O)[C@@H](F)CCO2 [Compound 272]
3 | 0.178 µM | 30.21 | 0.0055 µM | COc1nc([C@H](C)F)ccc1-c1ccc2cnc(CNC(=O)c3cc(F)c4c(c3)S(=O)(=O)[C@@H](F)CCO4)cc2n1 [Compound 173]
4 | 0.0587 µM | 23.13 | 0.0026 µM | O=C(NCc1cc2nc(N3CCOc4ccc(N5CC(F)C5)nc43)ccc2cn1)c1cc(F)c2c(c1)S(=O)(=O)[C@@H](F)COC2 [Compound 63]
5 | 0.0572 µM | 14.50 | 0.0039 µM | O=C(NCc1cc2nc(N3CCOc4cc(N5CC[C@H](F)[C@@H](F)C5)cnc43)ccc2cn1)c1cc(Cl)c2c(c1)S(=O)(=O)[C@@H](F)COC2 [Compound 112]
6 | 0.245 µM | 25.74 | 0.0078 µM | O=C(NCc1cc2nc(N3CCOc4cc(N5CC(F)(F)C5)cnc43)ccc2cn1)c1cc(F)c2c(c1)S(=O)(=O)[C@@H](F)CCO2 [Compound 244]
7 | 0.064 µM | 10.41 | 0.0061 µM | COCCc1cnc2c(c1)OCCN2c1ccc2cnc(CNC(=O)c3cc(F)c4c(c3)S(=O)(=O)[C@@H](F)CCO4)cc2n1 [Compound 201]
8 | 0.0178 µM | 10.27 | 0.0015 µM | C[C@@H]1CN(c2nccc(-c3ccc4cnc(CNC(=O)c5cc(F)c6c(c5)S(=O)(=O)[C@@H](F)CCO6)cc4c3)n2)C[C@H](C)O1 [Compound 16]
9 | 0.109 µM | 25.02 | 0.0048 µM | COc1ccc(-c2ccc3cnc(CNC(=O)c4cc(F)c5c(c4)S(=O)(=O)[C@@H](F)CCO5)cc3n2)nc1[C@@H]1CC1(F)F [Compound 144]
10 | 0.0189 µM | 11.17 | 0.0019 µM | CN(C)c1cnc2c(c1)OCCN2c1ccc2cnc(CNC(=O)c3cc(F)c4c(c3)S(=O)(=O)[C@@H](F)COC4)cc2n1 [Compound 33]
11 | 0.102 µM | 14.03 | 0.0072 µM | C[C@@H]1CN(c2cccc(-c3ccc4nnc(CNC(=O)c5cc(Cl)c6c(c5)S(=O)(=O)[C@@H](F)CCO6)cc4c3)n2)C[C@H](C)O1 [Compound 231]
12 | 0.118 µM | 11.89 | 0.0099 µM | C[C@H]1C[C@H]1c1cnc2c(c1)OCCN2c1ccc2cnc(CNC(=O)c3cc(F)c4c(c3)S(=O)(=O)[C@@H](F)CCO4)cc2n1 [Compound 300]
13 | 0.19 µM | 21.58 | 0.008 µM | O=C(NCc1cc2nc(N3CCOc4ccc(N5CC(F)(F)C5)nc43)ccc2cn1)c1cc(F)c2c(c1)S(=O)(=O)[C@@H](F)CCO2 [Compound 254]
14 | 0.0483 µM | 12.04 | 0.004 µM | O=C(NCc1cc2nc(N3CCOc4cc([C@H]5CC5(F)F)cnc43)ccc2cn1)c1cc(F)c2c(c1)S(=O)(=O)[C@@H](F)COC2 [Compound 116]
15 | 0.0484 µM | 16.24 | 0.003 µM | C[C@@H]1[C@@H](F)CN1c1cnc2c(c1)OCCN2c1ccc2cnc(CNC(=O)c3cc(F)c4c(c3)S(=O)(=O)[C@@H](F)CCO4)cc2n1 [Compound 80]
16 | 0.174 µM | 16.68 | 0.0098 µM | COCCOc1nccc2c1CCCN2c1ccc2cnc(CNC(=O)c3cc(F)c4c(c3)S(=O)(=O)[C@@H](F)CCO4)cc2n1 [Compound 295]
17 | 0.0899 µM | 12.89 | 0.0057 µM | O=C(NCc1cc2nc(N3CCOc4cc(N5CC[C@H](F)C5)cnc43)ccc2cn1)c1cc(F)c2c(c1)S(=O)(=O)[C@@H](F)CCO2 [Compound 183]
18 | 0.056 µM | 22.78 | 0.0025 µM | C[C@@H]1CN(c2cccc(/C=C/c3ccnc(CNC(=O)c4cc(F)c5c(c4)S(=O)(=O)[C@@H](F)CCO5)c3)n2)C[C@H](C)O1 [Compound 52, (R)—N-((4-((E)-2-(6-((2S,6R)-2,6-dimethylmorpholino)pyridin-2-yl)vinyl)pyridin-2-yl)methyl)-4,9-difluoro-3,4-dihydro-2H-benzo[b][1,4]oxathiepine-7-carboxamide 5,5-dioxide]
19 | 0.092 µM | 14.89 | 0.0061 µM | [2H]C1([2H])Oc2c(F)cc(C(=O)NCc3cc4nc(N5CCOc6ccc(C(F)F)nc65)ccc4cn3)cc2S(=O)(=O)[C@@]([2H])(F)C1([2H])[2H] [Compound 203]

Row | IC50 (BRG-1) | Ratio (BRG1 IC50 (μM) divided by BRM IC50 (μM)) (BRM) | IC50 (BRM) | Structure (SMILES)
20 | 0.0506 µM | 12.84 | 0.0042 µM | O=C(NCc1cc2nc(N3CCOc4ccc([C@@H]5C[C@H]5C(F)F)nc43)ccc2cn1)c1cc(F)c2c(c1)S(=O)(=O)[C@@H](F)CCO2 [Compound 123]
21 | 0.207 µM | 23.96 | 0.0081 µM | C[C@@H]1CN(c2cccc(-c3ccc4cnc(CNC(=O)c5cc(Br)c6c(c5)S(=O)(=O)[C@@H](F)CCO6)cc4n3)n2)C[C@H](C)O1 [Compound 255]
22 | 0.0567 µM | 10.82 | 0.0053 µM | COc1nc(C(F)F)ccc1-c1ccc2cnc(CNC(=O)c3cc(F)c4c(c3)S(=O)(=O)[C@@H](F)COC4)c(F)c2n1 [Compound 167]
23 | 0.0708 µM | 17.91 | 0.0045 µM | COc1nc(C(F)F)ccc1-c1ccc2cnc(CNC(=O)c3cc(C)c4c(c3)S(=O)(=O)[C@@H](F)COC4)cc2n1 [Compound 131]
24 | 0.105 µM | 22.17 | 0.004 µM | C[C@@H]1C[C@H]1c1cnc2c(c1)OCCN2c1ccc2cnc(CNC(=O)c3cc(F)c4c(c3)S(=O)(=O)[C@@H](F)CCO4)cc2n1 [Compound 115]
25 | 0.0477 µM | 20.83 | 0.0023 µM | COc1nc([C@@H](F)CF)ccc1-c1ccc2cnc(CNC(=O)c3cc(F)c4c(c3)S(=O)(=O)[C@@H](F)COC4)cc2n1 [Compound 46]
26 | 0.105 µM | 8.51 | 0.0123 µM | C[C@@H]1CN(c2cccc(-c3ccc4cnc(CNC(=O)c5ccc6c(c5)S(=O)(=O)[C@@H](F)CCN6C)cc4n3)n2)C[C@H](C)O1 [Compound 318]
27 | 0.0582 µM | – | 0.0025 µM | [2H]C1([2H])OC([2H])([2H])[C@H](F)S(=O)(=O)c2cc(C(=O)NCc3cc4nc(N5CCOc6cc(N7CC(F)C7)cnc65)ccc4cn3)cc(F)c21 [Compound 56]
28 | 0.153 µM | 18.84 | 0.0087 µM | COc1cc(F)ccc1-c1ccc2cnc(CNC(=O)c3cc(F)c4c(c3)S(=O)(=O)[C@@H](F)CCO4)cc2n1 [Compound 266]
29 | 0.0421 µM | 18.72 | 0.0025 µM | Cc1cnc2c(c1)OCCN2c1ccc2cnc(CNC(=O)c3cc(F)c4c(c3)S(=O)(=O)[C@@H](F)CCO4)cc2n1 [Compound 51]
30 | 0.0705 µM | 9.91 | 0.0071 µM | COc1nc(-c2ccc3cnc(CNC(=O)c4cc(F)c5c(c4)S(=O)(=O)[C@@H](F)CCO5)cc3n2)ccc1[C@H](F)CF [Compound 227]
31 | 0.0543 µM | 16.31 | 0.0023 µM | C[C@@H]1CCN1c1cnc2c(c1)OCCN2c1ccc2cnc(CNC(=O)c3cc(F)c4c(c3)S(=O)(=O)[C@@H](F)CCO4)cc2n1 [Compound 47]
32 | 0.0367 µM | 18.96 | 0.0019 µM | O=C(NCc1cc2nc(N3CCOc4cc(C(F)F)cnc43)ccc2cn1)c1cc(F)c2c(c1)S(=O)(=O)[C@@H](F)COC2 [Compound 32]
33 | 0.1 µM | 14.72 | 0.0051 µM | O=C(NCc1cc2nc(N3CCOc4cc(C(F)F)cnc43)ccc2cn1)c1cc(F)c2c(c1)S(=O)(=O)[C@@H](F)CCO2 [Compound 159]
34 | 0.104 µM | 18.29 | 0.0057 µM | O=C(NCc1cc2nc(N3CCOc4cc(OC(F)F)cnc43)ccc2cn1)c1cc(F)c2c(c1)S(=O)(=O)[C@@H](F)CCO2 [Compound 180]
35 | 0.0234 µM | 12.76 | 0.0015 µM | CCN(CC)c1cnc2c(c1)OCCN2c1ccc2cnc(CNC(=O)c3cc(F)c4c(c3)S(=O)(=O)[C@@H](F)COC4)cc2n1 [Compound 17]
36 | 0.11 µM | 16.06 | 0.0059 µM | COc1nc(C)ccc1-c1ccc2cnc(CNC(=O)c3cc(F)c4c(c3)S(=O)(=O)[C@@H](F)CCO4)cc2n1 [Compound 193]
37 | 0.0375 µM | 13.99 | 0.0027 µM | C[C@H]1[C@@H](F)CN1c1cnc2c(c1)OCCN2c1ccc2cnc(CNC(=O)c3cc(F)c4c(c3)S(=O)(=O)[C@@H](F)CCO4)cc2n1 [Compound 69]
38 | 0.221 µM | 17.63 | 0.0113 µM | C[C@H]1OC[C@H](F)S(=O)(=O)c2cc(C(=O)NCc3cc4nc(N5CCOc6cc(C7CC7)cnc65)ccc4cn3)ccc21 [Compound 162]

— patent US12139487B2, “Compounds and uses thereof” (Foghorn Therapeutics Inc., priority 2022, dated 2024)
